Test results: patent publication US8084457B2, “Pharmaceutically active 4,6-disubstituted aminopyrimidine derivatives as modulators of protein kinases” (Lead Discovery Center GmbH, priority 2003, dated 2011)

How the values were obtained:
Format in all cases: biochemical
[1] = molecular target: CDK4 (Homo sapiens, UniProt P11802); assay: Kinase assay, CDK4 activity range (Table 2)
[2] = molecular target: T1, CDK2/CyclinA (Homo sapiens, UniProt P24941); assay: Kinase assay determining CDK2/CyclinA activity; conditions: read-out: CDK2 (activity range)
T1 construct: purchased Proqinase
Method: Kinase Assays Determining CDK2/CyclinA and CDK5/p35 Activity:
Kinase assays were performed as described by the manufacturers recommendations (Proqinase for CDK2/CyclinA and Upsate for CDK5/p35).

[3] = molecular target: T2, CDK9/Cyclin T1 (Homo sapiens, UniProt P50750); assay: Kinase assay using CDK9/Cyclin T1; conditions: read-out: CDK9 (activity range)
T2 construct: made in house; host or cells: HEK293 cells, recombinant adenovirus
T2 sequence (P50750 whole entry): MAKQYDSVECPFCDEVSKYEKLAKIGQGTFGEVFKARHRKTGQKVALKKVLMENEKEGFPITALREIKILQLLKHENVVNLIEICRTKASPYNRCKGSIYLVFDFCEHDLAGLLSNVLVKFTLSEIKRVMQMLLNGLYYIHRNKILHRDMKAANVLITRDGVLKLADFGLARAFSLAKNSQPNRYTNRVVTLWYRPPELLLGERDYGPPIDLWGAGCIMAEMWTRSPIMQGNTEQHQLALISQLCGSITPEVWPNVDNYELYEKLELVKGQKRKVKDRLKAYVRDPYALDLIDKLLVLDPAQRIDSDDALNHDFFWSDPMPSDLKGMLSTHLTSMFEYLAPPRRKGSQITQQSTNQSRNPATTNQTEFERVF
T2 sequence (O60563 whole entry partner): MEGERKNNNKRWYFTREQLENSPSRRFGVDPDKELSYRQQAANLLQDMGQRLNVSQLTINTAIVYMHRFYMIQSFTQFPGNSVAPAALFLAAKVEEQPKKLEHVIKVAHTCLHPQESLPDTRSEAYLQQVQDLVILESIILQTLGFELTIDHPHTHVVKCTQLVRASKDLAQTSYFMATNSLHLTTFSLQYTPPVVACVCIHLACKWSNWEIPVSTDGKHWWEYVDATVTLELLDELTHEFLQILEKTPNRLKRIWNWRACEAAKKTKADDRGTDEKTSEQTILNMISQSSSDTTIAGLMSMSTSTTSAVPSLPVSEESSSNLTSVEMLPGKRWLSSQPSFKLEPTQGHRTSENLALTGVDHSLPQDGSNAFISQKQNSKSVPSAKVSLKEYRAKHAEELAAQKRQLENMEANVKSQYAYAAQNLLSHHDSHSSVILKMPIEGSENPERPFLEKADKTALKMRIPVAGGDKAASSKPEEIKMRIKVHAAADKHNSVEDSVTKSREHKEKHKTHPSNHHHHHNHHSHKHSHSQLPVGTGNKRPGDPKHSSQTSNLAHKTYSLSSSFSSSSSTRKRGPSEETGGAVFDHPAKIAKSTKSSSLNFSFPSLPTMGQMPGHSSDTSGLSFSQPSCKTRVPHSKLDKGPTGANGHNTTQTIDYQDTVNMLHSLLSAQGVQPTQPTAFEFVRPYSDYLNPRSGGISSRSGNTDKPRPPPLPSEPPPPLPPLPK
Excerpt: Cloning of CDK9 and Cyclin T1:
Both cDNA fragments were cloned by PCR into pDONR201 vectors using the gateway recombination system (Invitrogen) according to the manufacturer's recommendations. The fragments were subcloned into a gateway-adapted shuttle vector (pPM7) for production of recombinant adenovirus. All plasmids were verified by restriction digests and sequencing analysis.
Expression and Purification of CDK9/Cyclin T1 Proteins:
Expression and purification was in principle performed as described by Cotten et al. (M. Cotten et al., Nucleic acids research, 2003, 31(28), 128).
Kinase Assay Using CDK9/Cyclin T1:
Kinase assays were performed in principle as described by Cotten et al. (M. Cotten et al., Nucleic acids research, 2003, 31(28), 128).

Chain of CDK4 (P11802 whole entry, species assumed): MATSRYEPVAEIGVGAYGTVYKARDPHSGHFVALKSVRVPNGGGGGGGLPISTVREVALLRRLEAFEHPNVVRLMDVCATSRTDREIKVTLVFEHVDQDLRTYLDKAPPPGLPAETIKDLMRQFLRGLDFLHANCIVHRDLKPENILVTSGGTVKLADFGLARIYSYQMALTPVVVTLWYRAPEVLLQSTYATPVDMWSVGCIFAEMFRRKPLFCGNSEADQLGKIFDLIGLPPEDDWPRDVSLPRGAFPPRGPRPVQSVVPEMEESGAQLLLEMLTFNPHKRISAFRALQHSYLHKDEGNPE
Chain of CDK4 (P24385 whole entry partner, species assumed): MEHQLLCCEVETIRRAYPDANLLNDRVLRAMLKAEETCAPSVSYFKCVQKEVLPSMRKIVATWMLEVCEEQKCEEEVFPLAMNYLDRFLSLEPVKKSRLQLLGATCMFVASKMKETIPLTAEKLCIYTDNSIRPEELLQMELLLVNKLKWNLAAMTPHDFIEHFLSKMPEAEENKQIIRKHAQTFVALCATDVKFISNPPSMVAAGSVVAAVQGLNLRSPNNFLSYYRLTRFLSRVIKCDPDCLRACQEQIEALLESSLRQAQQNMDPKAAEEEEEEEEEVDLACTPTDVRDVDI

| SMILES | IC50 [1] [nM] | IC50 [2] [nM] | IC50 [3] [nM] |
| --- | --- | --- | --- |
| COc1ccccc1-c1cc(Nc2ccc(NC(=O)[C@@H]3CCCCN3)cc2)ncn1 [(30)] | 1 to 1000 | 1000 to 10000 | 1 to 1000 |
| NC(=O)c1ccc(Nc2cc(-c3ccccc3OCc3ccccc3)ncn2)cc1 [(95)] | 1000 to 10000 | 1 to 1000 | 1 to 1000 |
| COc1ccccc1-c1cc(Nc2ccc(NC(=O)CCN)cc2)ncn1 [(102)] | 1 to 1000 | 1000 to 10000 | 1 to 1000 |
| NCCCOc1ccccc1-c1cc(Nc2ccc(NC(=O)c3ccc(N)cc3)cc2)ncn1 [(103)] | 10000 to 250000 | 1000 to 10000 | 1 to 1000 |
| CC(=O)Nc1cccc(-c2cc(Nc3ccc(C)c(NS(C)(=O)=O)c3)ncn2)c1 [(104)] | 10000 to 250000 | 1000 to 10000 | 1 to 1000 |
| COc1ccccc1-c1cc(Nc2ccc(N)cc2C)ncn1 [(123)] | – | 1000 to 10000 | 1000 to 10000 |
| COc1ccccc1-c1cc(Nc2ccc(C(=O)Nc3ccc(N4CCOCC4)cc3)cc2)ncn1 [(125)] | – | 1000 to 10000 | 1 to 1000 |
| C=Cc1ccccc1-c1cc(Nc2ccc(NC(=O)C(C)(C)C)cc2)ncn1 [(126)] | – | 10000 to 250000 | 1000 to 10000 |
| CC(C)(C)C(=O)Nc1ccc(Nc2cc(-c3ccccc3F)ncn2)cc1 [(127)] | – | 10000 to 250000 | 10000 to 250000 |
| COc1ccccc1-c1cc(Nc2ccc(NC(=O)c3ccc4c(c3)OCO4)cc2)ncn1 [(130)] | – | 1000 to 10000 | 1 to 1000 |
| CCc1ccccc1-c1cc(Nc2ccc(NC(=O)C(C)(C)C)cc2)ncn1 [(131)] | – | 1000 to 10000 | 10000 to 250000 |
| COc1ccccc1-c1cc(Nc2ccc(NC(=O)c3c[nH]c4ccccc34)cc2)ncn1 [(133)] | – | 1000 to 10000 | 1 to 1000 |
| COc1ccccc1-c1cc(Nc2ccc(C(=O)Nc3ccc(O)cc3)cc2)ncn1 [(136)] | – | 1000 to 10000 | 1 to 1000 |
| COc1ccccc1-c1cc(Nc2ccc(C(=O)Nc3ccc(C(C)C)cc3)cc2)ncn1 [(137)] | – | 10000 to 250000 | 1000 to 10000 |
| COc1ccccc1-c1cc(Nc2ccc(NC(=O)c3ccc4[nH]cnc4c3)cc2)ncn1 [(138)] | – | 10000 to 250000 | 1000 to 10000 |
| COc1ccccc1-c1cc(Nc2ccc(NC(=O)c3ccc4ccccc4c3O)cc2)ncn1 [(139)] | – | 1000 to 10000 | 1 to 1000 |
| Cc1ccc(Nc2cc(-c3cccc(N)c3)ncn2)cc1NS(=O)(=O)c1cccc2cccnc12 [(142)] | – | 10000 to 250000 | 1 to 1000 |
| Cc1ccc(Nc2cc(-c3cccc(N)c3)ncn2)cc1NS(=O)(=O)c1cn(C)cn1 [(144)] | – | 1 to 1000 | 1 to 1000 |
| COc1ccccc1-c1cc(Nc2ccc(NC(=O)C(N)c3ccc4ccccc4c3)cc2)ncn1 (centres unmarked) [(146)] | – | 1000 to 10000 | 1 to 1000 |
| COc1ccccc1-c1cc(Nc2ccc(C(=O)N3CCOCC3)cc2)ncn1 [(147)] | 1000 to 10000 | – | 1000 to 10000 |
| COc1ccccc1-c1cc(Nc2ccc(C(=O)NC3CCCCC3N)cc2)ncn1 (centres unmarked) [(148)] | – | 1000 to 10000 | 1 to 1000 |
| Nc1ccc(C(=O)Nc2ccc(Nc3cc(-c4ccccc4O)ncn3)cc2)cc1 [(151)] | – | 10000 to 250000 | 10000 to 250000 |
| COc1ccccc1-c1ncnc(Nc2ccc(N)cc2)c1C [(152)] | – | 10000 to 250000 | 10000 to 250000 |

| SMILES | IC50 [1] [nM] | IC50 [2] [nM] | IC50 [3] [nM] |
| --- | --- | --- | --- |
| COc1ccccc1-c1cc(Nc2ccc(NS(=O)(=O)C(C)C)cc2)ncn1 [(153)] | – | 1 to 1000 | 1 to 1000 |
| CCCS(=O)(=O)Nc1ccc(Nc2cc(-c3ccccc3OC)ncn2)cc1 [(154)] | – | 1 to 1000 | 1 to 1000 |
| COc1ccccc1-c1cc(Nc2ccc(NS(=O)(=O)c3ccccc3)cc2)ncn1 [(155)] | – | 1 to 1000 | 1 to 1000 |
| Cc1ccc(Nc2cc(-c3ccccc3OCc3ccccc3)ncn2)cc1NS(C)(=O)=O [(156)] | – | 1 to 1000 | 1 to 1000 |
| Cc1ccc(Nc2cc(-c3cccc(N(C)C)c3)ncn2)cc1NS(C)(=O)=O [(157)] | – | 1000 to 10000 | 1 to 1000 |
| Cc1ccc(Nc2cc(-c3ccccc3OC(C)C)ncn2)cc1NS(C)(=O)=O [(158)] | – | 1 to 1000 | 1 to 1000 |
| COc1ccccc1-c1cc(Nc2ccc(C)c(NS(C)(=O)=O)c2)ncn1 [(162)] | – | 1 to 1000 | 1 to 1000 |
| Cc1ccc(Nc2cc(-c3cccc(C#N)c3)ncn2)cc1NS(C)(=O)=O [(163)] | – | 1000 to 10000 | 1000 to 10000 |
| O=C(Nc1ccc(Nc2cc(-c3ccccc3OCc3ccccc3)ncn2)cc1)[C@@H]1CCCCN1 [(164)] | – | 1 to 1000 | 1 to 1000 |
| Cc1ccc(Nc2cc(-c3cccc(C=O)c3)ncn2)cc1NS(C)(=O)=O [(165)] | – | 1000 to 10000 | 1000 to 10000 |
| O=Cc1cccc(-c2cc(Nc3ccc(NC(=O)[C@@H]4CCCCN4)cc3)ncn2)c1 [(168)] | 1000 to 10000 | – | 1000 to 10000 |
| O=C(Nc1ccc(Nc2cc(-c3ccc(Oc4ccccc4)cc3)ncn2)cc1)[C@@H]1CCCCN1 [(174)] | – | 1000 to 10000 | 1 to 1000 |
| COc1ncccc1-c1cc(Nc2ccc(C)c(NS(C)(=O)=O)c2)ncn1 [(176)] | – | 1000 to 10000 | 1 to 1000 |
| Cc1ccc(Nc2cc(-c3ccccc3O)ncn2)cc1NS(C)(=O)=O [(181)] | – | 1 to 1000 | 1 to 1000 |
| COC(=O)/C=C/c1cccc(-c2cc(Nc3ccc(C)c(NS(C)(=O)=O)c3)ncn2)c1 [(182)] | – | 1000 to 10000 | 1000 to 10000 |
| Cc1ccc(Nc2cc(-c3cccc(CO)c3)ncn2)cc1NS(C)(=O)=O [(183)] | – | 1000 to 10000 | 1000 to 10000 |
| CCCCNS(=O)(=O)c1cccc(Nc2cc(-c3ccccc3OC)ncn2)c1 [(184)] | – | 1000 to 10000 | 1 to 1000 |
| COc1ccccc1-c1cc(Nc2cccc(S(C)(=O)=O)c2)ncn1 [(185)] | – | 1 to 1000 | 1 to 1000 |
| O=C(Nc1ccc(Nc2cc(-c3ccccc3OC(F)(F)F)ncn2)cc1)[C@@H]1CCCCN1 [(190)] | 1000 to 10000 | – | 1000 to 10000 |
| O=C(Nc1ccc(Nc2cc(-c3ccccc3Cl)ncn2)cc1)[C@@H]1CCCCN1 [(192)] | – | 10000 to 250000 | 1 to 1000 |
| Nc1cccc(-c2cc(Nc3cccc(S(N)(=O)=O)c3)ncn2)c1 [(214)] | – | 1000 to 10000 | 1 to 1000 |
| COc1ccc(-c2cc(Nc3cccc(S(N)(=O)=O)c3)ncn2)cc1 [Compound 215] | – | 1 to 1000 | 1 to 1000 |

The remaining lines, values ahead:

| IC50 [1] [nM] | IC50 [2] [nM] | IC50 [3] [nM] | SMILES |
| --- | --- | --- | --- |
| 1000 to 10000 | 1000 to 10000 | 1 to 1000 | COc1ccccc1-c1cc(Nc2ccc(C(=O)N[C@@H]3CCCC[C@H]3N)cc2)ncn1 (racemic) [(83)] |
| 1000 to 10000 | 1000 to 10000 | 1 to 1000 | CC(C)Oc1ccccc1-c1cc(Nc2ccc(C(=O)N[C@@H]3CCCC[C@H]3N)cc2)ncn1 (racemic) [(199)] |
| 1 to 1000 | 1 to 1000 | 1 to 1000 | COc1ccccc1-c1cc(Nc2ccc(N3CCCC3=O)cc2)ncn1 [(9)] |
| 1000 to 10000 | 1 to 1000 | 1 to 1000 | COc1ccccc1-c1cc(Nc2ccc(NC(C)=O)cc2)ncn1 [(10)] |
| 10000 to 250000 | 1 to 1000 | 1 to 1000 | COc1ccccc1-c1cc(Nc2ccc(C(N)=O)cc2)ncn1 [(14)] |
| 1000 to 10000 | 1 to 1000 | 1 to 1000 | COc1ccccc1-c1cc(Nc2ccc(N)cc2)ncn1 [(22)] |
| 1000 to 10000 | 1 to 1000 | 1 to 1000 | COc1ccccc1-c1cc(Nc2ccc(NS(C)(=O)=O)cc2)ncn1 [(33)] |
| 1000 to 10000 | 1000 to 10000 | 1 to 1000 | COc1ccccc1-c1cc(Nc2ccc(NC(=O)CN(C)C)cc2)ncn1 [(46)] |
| 1 to 1000 | 1000 to 10000 | 1 to 1000 | COc1ccccc1-c1cc(Nc2ccc(NC(=O)CC3CCCCN3)cc2)ncn1 (centres unmarked) [(59)] |
| 1000 to 10000 | 1000 to 10000 | 1 to 1000 | CCN(CC)CCC(=O)Nc1ccc(Nc2cc(-c3ccccc3OC)ncn2)cc1 [(64)] |
| 10000 to 250000 | 1000 to 10000 | 1 to 1000 | COc1ccccc1-c1cc(Nc2ccc(NC(=O)[C@@H]3Cc4ccccc4CN3)cc2)ncn1 [(65)] |
| 1000 to 10000 | 1000 to 10000 | 1 to 1000 | COc1ccccc1-c1cc(Nc2ccc(NC(=O)C3(N)CCCCC3)cc2)ncn1 [(66)] |
| 1000 to 10000 | 1000 to 10000 | 1 to 1000 | COc1ccccc1-c1cc(Nc2ccc(NC(=O)C3(N)CCCC3)cc2)ncn1 [(68)] |
| 1 to 1000 | 1000 to 10000 | 1 to 1000 | COc1ccccc1-c1cc(Nc2ccc(NC(=O)[C@H]3CCCCN3)cc2)ncn1 [(69)] |
| 1000 to 10000 | 1000 to 10000 | 1 to 1000 | COc1ccccc1-c1cc(Nc2ccc(NC(=O)[C@@H](N)c3ccccc3)cc2)ncn1 [(81)] |
| 1000 to 10000 | 1000 to 10000 | 1 to 1000 | CN[C@H](C(=O)Nc1ccc(Nc2cc(-c3ccccc3OC)ncn2)cc1)c1ccccc1 [(82)] |
| 1 to 1000 | 1 to 1000 | 1 to 1000 | COc1ccccc1-c1cc(Nc2ccc(C(=O)NC3CCCNC3)cc2)ncn1 (centres unmarked) [(86)] |
| 1000 to 10000 | 1000 to 10000 | 1 to 1000 | COc1ccccc1-c1cc(Nc2ccc(NC(=O)C3CCCN(C)C3)cc2)ncn1 (centres unmarked) [(87)] |
| 1000 to 10000 | 1000 to 10000 | 1 to 1000 | COc1ccccc1-c1cc(Nc2ccc(NC(=O)C3CCN(C)CC3)cc2)ncn1 [(89)] |
| 1000 to 10000 | 1000 to 10000 | 1 to 1000 | COc1ccccc1-c1cc(Nc2ccc(NC(=O)[C@H]3CCCN3)cc2)ncn1 [(91)] |
